Several values for one entry are separate records, joined by “and”; a condition that tells them apart may be missing. Equal entries are not always repeated. Where no end group is shown, it is not given here.
What was measured:
[1] = Anti-cancer activity, 5637 cell; type: cell-based, human; settings: bladder cancer; for CC50 at 2 days: human, read-out: LC50; for CC50: read-out: LC50 (the source's name)
Procedure: (§1) Anti-cancer activity was evaluated using a method complying with an anti-cancer agent screening method (1990) using a human cancer cell panel which has been carried out by U.S. National Cancer Institute (NCI). Cells employed in experiments were from the following three cell lines: HL60 cell (cell line derived from human leukemia); HeLa cell (cell line derived from human uterine cancer); and HCT116 cell (cell line derived from human large intestine cancer). Media suitable for use of these cells are RPMI-1640 medium containing 10% FCS; a MEM medium containing 10% CS; and McCoy5A medium containing 10% FCS, respectively.
(§2) Cells suspended in themedium wereplated into 96-well plates at a concentration of 1×10^5 cells/cm^2, followed by incubation overnight. Peptide solutions containing various concentrations of the peptide of the present invention were added to the plates, followed by incubation at 37° C. for 2 days in a CO2 incubator. During culturing, the growth of the cells was measured by colorimetry using sulforhodamine B and the peptide concentration was categorized into any of GI50 which is the concentration at which the growth is inhibited by 50% as compared to the control; TGI which is the concentration at which the number of cells is seemingly not increased or decreased from the time of addition of the peptide of the present invention, i.e., the growth is suppressed to the same number of cells as when the peptide was added: and LC50 which is the concentration at which the number of cells is decreased to 50% of that at the time of addition of the peptide.
(§3) Thereafter, various cancer cells were employed to confirm the anti-cancer activity of mast21R. Each cancer cell was cultured in RPMI-1640 medium containing 10% FCS.

[2] = Anti-cancer activity, EJ-1 cell; type: cell-based, human; settings: for CC50 at 2 days: human, EJ-1 cells (bladder cancer cells), read-out: LC50; for CC50: bladder cancer, read-out: LC50 (the source's name)
Procedure: as §1, §2, §3

[3] = Anti-cancer activity, KATO III cell; type: cell-based, human; settings: for CC50 at 2 days: human, KATO III cells (stomach cancer cells), read-out: LC50; for CC50: stomach cancer, read-out: LC50 (the source's name)
Procedure: as §1, §2, §3

[4] = Anti-cancer activity, SH-10-TC; type: cell-based, human; settings: for LC50 at 2 days: human, SH-10-TC cells (stomach cancer cells); for LC50: stomach cancer
Procedure: as §1, §2, §3

[5] = Anti-cancer activity, SR-BR-3; type: cell-based, human; settings: SR-BR-3, breast cancer; for CC50 at 2 days: human, SR-BR-3 cells (breast cancer cells), read-out: LC50; for CC50: read-out: LC50 (the source's name)
Procedure: as §1, §2, §3

[6] = Anti-cancer activity, MCF7; type: cell-based, human; settings: for LC50 at 2 days: human, MCF7 cells (breast cancer cells); for LC50: MCF7, breast cancer
Procedure: as §1, §2, §3

[7] = Anti-cancer activity, A549; type: cell-based, human; settings: A549, lung cancer; for CC50 at 2 days: human, read-out: LC50; for CC50: read-out: LC50 (the source's name)
Procedure: as §1, §2, §3

[8] = Anti-cancer activity, LK-2; type: cell-based, human; settings: LK-2, lung cancer; for CC50 at 2 days: human, LK-2 cells (lung cancer cells), read-out: LC50; for CC50: read-out: LC50 (the source's name)
Procedure: as §1, §2, §3

[9] = Anti-cancer activity, EBC-1; type: cell-based, human; settings: EBC-1, lung cancer; for CC50 at 2 days: human, EBC-1 cells (lung cancer cells), read-out: LC50; for CC50: read-out: LC50 (the source's name)
Procedure: as §1, §2, §3

[10] = Anti-cancer activity, PC-3; type: cell-based, human; settings: PC-3, prostate cancer; for CC50 at 2 days: human, PC-3 cells (prostate cancer cells), read-out: LC50; for CC50: read-out: LC50 (the source's name)
Procedure: as §1, §2, §3

[11] = Anti-cancer activity, DU-145; type: cell-based, human; settings: DU-145, prostate cancer; for CC50 at 2 days: human, read-out: LC50; for CC50: read-out: LC50 (the source's name)
Procedure: as §1, §2, §3

[12] = Anti-cancer activity, A172; type: cell-based, human; settings: A172, glioblastoma; for CC50 at 2 days: human, read-out: LC50; for CC50: read-out: LC50 (the source's name)
Procedure: as §1, §2, §3

[13] = Anti-cancer activity, colo205; type: cell-based, human; settings: colo205, large intestine cancer; for CC50 at 2 days: human, read-out: LC50; for CC50: read-out: LC50 (the source's name)
Procedure: as §1, §2, §3

[14] = Anti-cancer activity, HCT-15; type: cell-based, human; settings: HCT-15, large intestine cancer; for CC50 at 2 days: human, HCT-15 cells (large intestine cancer cells), read-out: LC50; for CC50: read-out: LC50 (the source's name)
Procedure: as §1, §2, §3

[15] = Anti-cancer activity, D98-AH2; type: cell-based, human; settings: for CC50 at 2 days: human, D98-AH2 cells (uterine cancer cells), read-out: LC50; for CC50: D98-AH2, uterine cancer, read-out: LC50 (the source's name)
Procedure: as §1, §2, §3

[16] = Anti-cancer activity, NIH OVCAR-3; type: cell-based, human; settings: NIH OVCAR-3, ovarian cancer; for CC50 at 2 days: human, NIH OVCAR-3 cells (ovarian cancer cells), read-out: LC50; for CC50: read-out: LC50 (the source's name)
Procedure: as §1, §2, §3

[17] = Anti-cancer activity, ACHN; type: cell-based, human; settings: for CC50 at 2 days: human, ACHN cells (kidney cancer cells), read-out: LC50; for CC50: kidney cancer, read-out: LC50 (the source's name)
Procedure: as §1, §2, §3

[18] = tested on: Erwinia carotovora (NBRC3380); assay: Antibacterial activity against plant pathogenic bacteria; type: cell-based; settings: 30° C., 16 to 24 h
Procedure: Mast21, mast21R, ALR6, and KVL6 were evaluated with respect to antibacterial activity against Erwinia carotovora (NBRC3380) which is a plant pathogenic bacterium causing soft rot. Specifically, a minimum concentration of a peptide capable of inhibiting the growth of bacteria was determined using microtiter plates. Bacteria were cultured for 16 h in culture medium (Difco Nutrient Broth 8 g, NaCl 5 g/L, pH 7.0), followed by measurement of absorbance at A600. Each bacterial strain was diluted into a final concentration of 1×10^6 CFU/ml. For each peptide, 5 mM aqueous solution was prepared, and thereafter, was subjected to serial dilution. The peptide serial dilutions (50 μl for each) were added to respective wells of the microplate to which 50 μl of the bacterial solution had been added (final cell concentration: 5×10^5 CFU/ml, final peptide concentration: 0 to 50 μM). […] The unit of concentration described in Table 9 is μM.

B. subtilis IFO13722 = settings: IFO13722, 18 h
B. sereus IFO3457 = settings: 18 h
S. aureus IFO13276 = settings: IFO13276, 18 h
S. aureus JCM2413 = settings: JCM2413, 18 h
E. coli JCM1649 = settings: JCM1649, 18 h
E. coli CR-3 = settings: CR-3, 18 h
E. coli CE-273 = settings: CE-273, 18 h
S. enteritidis ATCC1891 = settings: ATCC1891, 18 h
S. enteritidis ATC14028 = settings: ATC14028, 18 h
erythrocytes = settings: red cells of human, 100 μM
[19] = Anti-cancer activity, HCT116 cell; type: cell-based, human; settings: sulforhodamine B
Procedure: as §1
(§4) Cells suspended in themedium wereplated into 96-well plates at a concentration of 1×10^5 cells/cm^2, followed by incubation overnight. Peptide solutions containing various concentrations of the peptide of the present invention were added to the plates, followed by incubation at 37° C. for 2 days in a CO2 incubator. […]

[20] = Anti-cancer activity, HeLa cell; type: cell-based, human; settings: sulforhodamine B
Procedure: as §1, §4

[21] = Anti-cancer activity, HL60 cell; type: cell-based, human; settings: sulforhodamine B
Procedure: as §1, §4

[22] = 2 days, read-out: LC50 (the source's name)

ALRALRALRALRALRALR [ALR6, ALRALRALRALRALRALR]
CC50 at 2 days [1]: > 100 µM
CC50 at 2 days [2]: > 100 µM
CC50 at 2 days [3]: > 100 µM
LC50 at 2 days [4]: > 100 µM
CC50 at 2 days [5]: 100 µM
LC50 at 2 days [6]: 80 µM
CC50 at 2 days [7]: > 100 µM
CC50 at 2 days [8]: > 100 µM
CC50 at 2 days [9]: > 100 µM
CC50 at 2 days [10]: > 100 µM
CC50 at 2 days [11]: > 100 µM
CC50 at 2 days [12]: > 100 µM
CC50 at 2 days [13]: > 100 µM
CC50 at 2 days [14]: > 100 µM
CC50 at 2 days [15]: > 100 µM
CC50 at 2 days [16]: > 100 µM
CC50 at 2 days [17]: > 100 µM
MIC [18]: 3.1 μM and 3.2 μg/ml

KVLKVLKVLKVLKVLKVL [KVL6, KVLKVLKVLKVLKVLKVL]
CC50 at 2 days [1]: 100 µM
CC50 at 2 days [2]: 90 µM
CC50 at 2 days [3]: 100 µM
LC50 at 2 days [4]: 60 µM
CC50 at 2 days [5]: 100 µM
LC50 at 2 days [6]: 100 µM
CC50 at 2 days [7]: 70 µM
CC50 at 2 days [8]: > 100 µM
CC50 at 2 days [9]: > 100 µM
CC50 at 2 days [10]: > 100 µM
CC50 at 2 days [11]: > 100 µM
CC50 at 2 days [12]: > 100 µM
CC50 at 2 days [13]: 100 µM
CC50 at 2 days [14]: 80 µM
CC50 at 2 days [15]: > 100 µM
CC50 at 2 days [16]: > 100 µM
CC50 at 2 days [17]: 80 µM
MIC [18]: 3.1 μM and 3.2 μg/ml

KNWKGIAGMAKKLLGKNWKLM [mast21, reference compound]
CC50 [1]: > 100 µM
CC50 [2]: 70 µM
CC50 [3]: > 100 µM
LC50 [4]: 90 µM
CC50 [5]: 90 µM
LC50 [6]: 100 µM
CC50 [7]: 70 µM
CC50 [8]: > 100 µM
CC50 [9]: 100 µM
CC50 [10]: 100 µM
CC50 [11]: > 100 µM
CC50 [12]: > 100 µM
CC50 [13]: > 100 µM
CC50 [14]: 80 µM
CC50 [15]: > 100 µM
CC50 [16]: 100 µM
CC50 [17]: 80 µM
MIC [18]: 3.1 μM and 3.7 μg/ml
MIC (B. subtilis IFO13722): 6.3 µM
MIC (B. sereus IFO3457): 3.1 µM
MIC (S. aureus IFO13276): 25 µM
MIC (S. aureus JCM2413): 12.5 µM
MIC (E. coli JCM1649): 6.3 µM
MIC (E. coli CR-3): 6.3 µM
MIC (E. coli CE-273): 3.1 µM
MIC (S. enteritidis ATCC1891): 6.3 µM
MIC (S. enteritidis ATC14028): 6.3 µM
Hemolytic property (relative value) (erythrocytes): 5.4%

RNWRGIAGMARRLLGRNWRLM [mast21R]
CC50 [19, 22]: 2 µM
CC50 [20, 22]: 20 µM
LC50 ([21]; 2 days): 20 µM
CC50 [1]: 50 µM
CC50 [2]: 20 µM
CC50 [3]: 50 µM
LC50 [4]: 60 µM
CC50 [5]: 90 µM
LC50 [6]: 90 µM
CC50 [7]: 50 µM
CC50 [8]: > 100 µM
CC50 [9]: 70 µM
CC50 [10]: 60 µM
CC50 [11]: 90 µM
CC50 [12]: 50 µM
CC50 [13]: 50 µM
CC50 [14]: 30 µM
CC50 [15]: 50 µM
CC50 [16]: 80 µM
CC50 [17]: 30 µM
MIC [18]: 1.6 μM and 2 μg/ml
MIC (B. subtilis IFO13722): 1.56 µM
MIC (B. sereus IFO3457): 3.1 µM
MIC (S. aureus IFO13276): 6.25 µM
MIC (S. aureus JCM2413): 6.25 µM
MIC (E. coli JCM1649): 3.1 µM
MIC (E. coli CR-3): 1.6 µM
MIC (E. coli CE-273): 3.1 µM
MIC (S. enteritidis ATCC1891): 3.1 µM
MIC (S. enteritidis ATC14028): 3.1 µM
Hemolytic property (relative value) (erythrocytes): 13%

KVLKVLKVLKVLKVL [KVL5, KVLKVLKVLKVLKVL]
CC50 at 2 days ([19]; human, read-out: LC50): > 100 µM
CC50 at 2 days ([20]; human, HeLa cells (uterine cancer cell line), read-out: LC50): > 100 µM
LC50 at 2 days ([21]; human, HL60 cells (leukemia cell line)): > 100 µM
MIC (B. subtilis IFO13722): 25 µM
MIC (B. sereus IFO3457): 200 µM
MIC (S. aureus IFO13276): 100 µM
MIC (S. aureus JCM2413): 200 µM
MIC (E. coli JCM1649): 12.5 µM
MIC (E. coli CR-3): 25 µM
MIC (E. coli CE-273): 6.3 µM
MIC (S. enteritidis ATCC1891): 25 µM
MIC (S. enteritidis ATC14028): 100 µM

— US20040072992A1, “Novel peptide capable of specifically acting on biological membrane” (priority 2002, published 2004)
